Experimental data as given in the supplement of paper PMC10307832.

Assays:
Experiment in all cases: relative viability (nuclei count vs DMSO), 5 days (fraction); higher = more cells survive
[1] = compound: C[C@]12O[C@H](C[C@]1(O)CO)n1c3ccccc3c3c4c(c5c6ccccc6n2c5c31)CNC4=O [Lestaurtinib] + COc1cc2c(Oc3ccc(NC(=O)C4(C(=O)Nc5ccc(F)cc5)CC4)cc3F)ccnc2cc1OCCCN1CCOCC1 [Foretinib] (partner 0.25 µM)
In short: (§1)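 Five library-drug doses in √10 steps were combined with a fixed anchor-drug dose, or a single drug was given alone, by pin tool to lung cancer cell lines in 1536-well plates the day after seeding. Nuclei were stained and counted after 5 days. Relative viability is the nuclei count in treated wells over that in vehicle wells, taken as the median of duplicate plates.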

[2] = compound: C[C@]12O[C@H](C[C@]1(O)CO)n1c3ccccc3c3c4c(c5c6ccccc6n2c5c31)CNC4=O [Lestaurtinib] + Cc1nc(NC(=O)N2CCC[C@H]2C(N)=O)sc1-c1ccnc(C(C)(C)C(F)(F)F)c1 [Alpelisib] (partner 2 µM)
In short: as §1

[3] = compound: C1=CC(=CC=C1C2=CC(=C(S2)NC(=O)N)C(=O)N)F [TPCA-1] + CC1(C)CCC(c2ccc(Cl)cc2)=C(CN2CCN(c3ccc(C(=O)NS(=O)(=O)c4ccc(N[C@H](CCN5CCOCC5)CSc5ccccc5)c(S(=O)(=O)C(F)(F)F)c4)cc3)CC2)C1 [Navitoclax] (partner 0.5 µM)
In short: as §1

[4] = compound: C1/C(=C\C2=CC=CS2)/C(=O)/C(=C/C3=CC=CS3)/C1 + C[C@]1(O)C[C@@H](c2nc(-c3ccc4ccc(-c5ccccc5)nc4c3)c3c(N)nccn32)C1 [Linsitinib] (partner 1 µM)
In short: as §1

NCI-H1299
relative viability ([1]; first compound 0.005 µM): 1.07 | relative viability ([1]; first compound 0.01581 µM): 1.14 | relative viability ([1]; first compound 0.05 µM): 0.68 | relative viability ([1]; first compound 0.1581 µM): 0.832 | relative viability ([1]; first compound 0.5 µM): 0.671 | relative viability ([2]; first compound 0.005 µM): 1.14 | relative viability ([2]; first compound 0.01581 µM): 1.05 | relative viability ([2]; first compound 0.05 µM): 0.559 | relative viability ([2]; first compound 0.1581 µM): 0.614 | relative viability ([2]; first compound 0.5 µM): 0.713 | relative viability ([3]; first compound 0.04 µM): 1.08 | relative viability ([3]; first compound 0.1265 µM): 1.02 | relative viability ([3]; first compound 0.4 µM): 1.02 | relative viability ([3]; first compound 1.265 µM): 1.04 | relative viability ([3]; first compound 4 µM): 1.07 | relative viability ([4]; first compound 0.2 µM): 1.02 | relative viability ([4]; first compound 0.6325 µM): 1.04 | relative viability ([4]; first compound 2 µM): 0.933 | relative viability ([4]; first compound 6.325 µM): 0.789 | relative viability ([4]; first compound 20 µM): 0.956

NCI-H1734
relative viability ([1]; first compound 0.005 µM): 0.891 | relative viability ([1]; first compound 0.01581 µM): 0.951 | relative viability ([1]; first compound 0.05 µM): 0.705 | relative viability ([1]; first compound 0.1581 µM): 0.383 | relative viability ([1]; first compound 0.5 µM): 0.179 | relative viability ([2]; first compound 0.005 µM): 0.732 | relative viability ([2]; first compound 0.01581 µM): 0.689 | relative viability ([2]; first compound 0.05 µM): 0.569 | relative viability ([2]; first compound 0.1581 µM): 0.377 | relative viability ([2]; first compound 0.5 µM): 0.304 | relative viability ([3]; first compound 0.04 µM): 0.893 | relative viability ([3]; first compound 0.1265 µM): 0.759 | relative viability ([3]; first compound 0.4 µM): 0.871 | relative viability ([3]; first compound 1.265 µM): 0.779 | relative viability ([3]; first compound 4 µM): 0.697 | relative viability ([4]; first compound 0.2 µM): 0.902 | relative viability ([4]; first compound 0.6325 µM): 0.931 | relative viability ([4]; first compound 2 µM): 0.947 | relative viability ([4]; first compound 6.325 µM): 0.782 | relative viability ([4]; first compound 20 µM): 0.875

NCI-H1993
relative viability ([1]; first compound 0.005 µM): 0.791 | relative viability ([1]; first compound 0.01581 µM): 0.771 | relative viability ([1]; first compound 0.05 µM): 0.77 | relative viability ([1]; first compound 0.1581 µM): 0.63 | relative viability ([1]; first compound 0.5 µM): 0.535 | relative viability ([2]; first compound 0.005 µM): 0.788 | relative viability ([2]; first compound 0.01581 µM): 0.677 | relative viability ([2]; first compound 0.05 µM): 0.691 | relative viability ([2]; first compound 0.1581 µM): 0.591 | relative viability ([2]; first compound 0.5 µM): 0.583 | relative viability ([3]; first compound 0.04 µM): 1.01 | relative viability ([3]; first compound 0.4 µM): 0.794 | relative viability ([3]; first compound 1.265 µM): 0.756 | relative viability ([3]; first compound 4 µM): 0.809 | relative viability ([4]; first compound 0.2 µM): 0.683 | relative viability ([4]; first compound 0.6325 µM): 0.694 | relative viability ([4]; first compound 2 µM): 0.672 | relative viability ([4]; first compound 6.325 µM): 0.679 | relative viability ([4]; first compound 20 µM): 0.792

LK-2
relative viability ([1]; first compound 0.005 µM): 1.16 | relative viability ([1]; first compound 0.01581 µM): 1.19 | relative viability ([1]; first compound 0.05 µM): 0.683 | relative viability ([1]; first compound 0.1581 µM): 0.774 | relative viability ([1]; first compound 0.5 µM): 0.309 | relative viability ([2]; first compound 0.005 µM): 1.37 | relative viability ([2]; first compound 0.01581 µM): 0.97 | relative viability ([2]; first compound 0.05 µM): 1.01 | relative viability ([2]; first compound 0.1581 µM): 0.647 | relative viability ([2]; first compound 0.5 µM): 0.365 | relative viability ([3]; first compound 0.04 µM): 0.868 | relative viability ([3]; first compound 0.1265 µM): 0.664 | relative viability ([3]; first compound 0.4 µM): 0.955 | relative viability ([3]; first compound 1.265 µM): 0.778 | relative viability ([3]; first compound 4 µM): 0.71 | relative viability ([4]; first compound 0.2 µM): 0.641 | relative viability ([4]; first compound 0.6325 µM): 0.857 | relative viability ([4]; first compound 2 µM): 0.633 | relative viability ([4]; first compound 6.325 µM): 0.583 | relative viability ([4]; first compound 20 µM): 0.59

HCC-78
relative viability ([1]; first compound 0.005 µM): 0.51 | relative viability ([1]; first compound 0.01581 µM): 0.494 | relative viability ([1]; first compound 0.05 µM): 0.524 | relative viability ([1]; first compound 0.1581 µM): 0.545 | relative viability ([1]; first compound 0.5 µM): 0.308 | relative viability ([2]; first compound 0.005 µM): 0.349 | relative viability ([2]; first compound 0.01581 µM): 0.328 | relative viability ([2]; first compound 0.05 µM): 0.334 | relative viability ([2]; first compound 0.1581 µM): 0.246 | relative viability ([2]; first compound 0.5 µM): 0.226 | relative viability ([3]; first compound 0.04 µM): 0.973 | relative viability ([3]; first compound 0.1265 µM): 0.653 | relative viability ([3]; first compound 0.4 µM): 0.726 | relative viability ([3]; first compound 1.265 µM): 0.652 | relative viability ([3]; first compound 4 µM): 0.582 | relative viability ([4]; first compound 0.2 µM): 0.649 | relative viability ([4]; first compound 0.6325 µM): 0.554 | relative viability ([4]; first compound 2 µM): 0.57 | relative viability ([4]; first compound 6.325 µM): 0.535 | relative viability ([4]; first compound 20 µM): 0.496

NCI-H2405
relative viability ([1]; first compound 0.005 µM): 1.11 | relative viability ([1]; first compound 0.01581 µM): 1.08 | relative viability ([1]; first compound 0.05 µM): 1.05 | relative viability ([1]; first compound 0.1581 µM): 0.805 | relative viability ([1]; first compound 0.5 µM): 0.384 | relative viability ([2]; first compound 0.005 µM): 0.842 | relative viability ([2]; first compound 0.01581 µM): 0.643 | relative viability ([2]; first compound 0.05 µM): 0.488 | relative viability ([2]; first compound 0.1581 µM): 0.367 | relative viability ([2]; first compound 0.5 µM): 0.258 | relative viability ([3]; first compound 0.04 µM): 0.971 | relative viability ([3]; first compound 0.1265 µM): 0.691 | relative viability ([3]; first compound 0.4 µM): 0.964 | relative viability ([3]; first compound 4 µM): 0.714 | relative viability ([4]; first compound 0.2 µM): 0.992 | relative viability ([4]; first compound 0.6325 µM): 1.09 | relative viability ([4]; first compound 2 µM): 1.03 | relative viability ([4]; first compound 6.325 µM): 0.803 | relative viability ([4]; first compound 20 µM): 1.01

HOP-62
relative viability ([1]; first compound 0.005 µM): 1.15 | relative viability ([1]; first compound 0.01581 µM): 1.33 | relative viability ([1]; first compound 0.05 µM): 1.08 | relative viability ([1]; first compound 0.1581 µM): 1.06 | relative viability ([1]; first compound 0.5 µM): 0.343 | relative viability ([2]; first compound 0.005 µM): 1.05 | relative viability ([2]; first compound 0.01581 µM): 0.919 | relative viability ([2]; first compound 0.05 µM): 1.17 | relative viability ([2]; first compound 0.1581 µM): 0.775 | relative viability ([2]; first compound 0.5 µM): 0.436 | relative viability ([3]; first compound 0.04 µM): 0.982 | relative viability ([3]; first compound 0.1265 µM): 1.06 | relative viability ([3]; first compound 0.4 µM): 1.02 | relative viability ([3]; first compound 1.265 µM): 0.899 | relative viability ([3]; first compound 4 µM): 0.809 | relative viability ([4]; first compound 0.2 µM): 1.09 | relative viability ([4]; first compound 0.6325 µM): 0.879 | relative viability ([4]; first compound 2 µM): 0.853 | relative viability ([4]; first compound 6.325 µM): 0.982 | relative viability ([4]; first compound 20 µM): 0.815

BEN
relative viability ([1]; first compound 0.005 µM): 0.728 | relative viability ([1]; first compound 0.01581 µM): 0.803 | relative viability ([1]; first compound 0.05 µM): 0.478 | relative viability ([1]; first compound 0.1581 µM): 0.559 | relative viability ([1]; first compound 0.5 µM): 0.224 | relative viability ([2]; first compound 0.005 µM): 1.09 | relative viability ([2]; first compound 0.01581 µM): 1.31 | relative viability ([2]; first compound 0.05 µM): 0.852 | relative viability ([2]; first compound 0.1581 µM): 0.722 | relative viability ([2]; first compound 0.5 µM): 0.446 | relative viability ([3]; first compound 0.04 µM): 0.0874 | relative viability ([3]; first compound 0.1265 µM): 0.0533 | relative viability ([3]; first compound 0.4 µM): 0.0644 | relative viability ([3]; first compound 1.265 µM): 0.0802 | relative viability ([3]; first compound 4 µM): 0.0674 | relative viability ([4]; first compound 0.2 µM): 0.96 | relative viability ([4]; first compound 0.6325 µM): 0.923 | relative viability ([4]; first compound 2 µM): 0.877 | relative viability ([4]; first compound 6.325 µM): 0.841 | relative viability ([4]; first compound 20 µM): 0.757
